The source of these data is PubChem BioAssay (NCI).

Some test systems named below: CAKI-1 renal; HCT-116 colon; HCT-15 colon; HL-60(TB) leukemia; MCF7 breast; NCI-H460 lung; OVCAR-5 ovarian; RPMI-8226 leukemia; SF-295 CNS; SK-MEL-5 melanoma; SNB-19 CNS; SR leukemia.
What all share (test): NCI anticancer screen, dose series, 48 h

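Compound exposure: 48 hours, 5 concentrations, 96-well plates. GI50 is the concentration that inhibits growth by half. The concentration for full growth arrest is given as TGI.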

For `O=C1Nc2ccccc2S/C1=C\c1ccccc1C(F)(F)F`, the TGI with CAKI-1 renal, in the experiment on HCT-116 colon, in the experiment on HCT-15 colon, with HL-60(TB) leukemia, with MCF7 breast and with NCI-H460 lung was greater than 100 µM in each case. The TGI with OVCAR-5 ovarian, with RPMI-8226 leukemia, in the experiment on SF-295 CNS, with SK-MEL-5 melanoma, in the experiment with SNB-19 CNS and in the experiment with SR leukemia was greater than 100 µM throughout.
As to `CCCCCCCCCCCCCCCC(=O)OCC1CCCN2CCCCC12` (stereo not given), the TGI with CAKI-1 renal, in the experiment with HCT-116 colon, with HCT-15 colon, with HL-60(TB) leukemia, in the experiment with MCF7 breast and with NCI-H460 lung was greater than 100 µM each time. Further, the TGI with OVCAR-5 ovarian, with RPMI-8226 leukemia, in the experiment with SF-295 CNS, in the experiment on SK-MEL-5 melanoma and with SNB-19 CNS was greater than 100 µM each time.
Take `CC(C)OC(=O)C1=C(O)c2ccccc2S(=O)(=O)N1`: the TGI in the experiment on CAKI-1 renal, with HCT-116 colon, with HCT-15 colon, in the experiment on NCI-H460 lung, in the experiment with OVCAR-5 ovarian and with SF-295 CNS was greater than 100 µM throughout. Further, the TGI with SK-MEL-5 melanoma and with SNB-19 CNS was greater than 100 µM in each case.
`CC1CCC(O)(C(C)(C(=O)O)c2ccccc2)CC1` (stereo not given): the TGI in the experiment with CAKI-1 renal, in the experiment on HCT-116 colon, in the experiment with HCT-15 colon, with HL-60(TB) leukemia, with NCI-H460 lung and in the experiment on OVCAR-5 ovarian was greater than 100 µM in each case. The TGI in the experiment on SF-295 CNS, with SK-MEL-5 melanoma and in the experiment with SNB-19 CNS was greater than 100 µM in each case.
As to `Cc1ccc([N+](=O)[O-])cc1NC(=O)C(=O)C(C(=O)c1ccccc1F)C1OC(=O)c2ccccc21` (stereo not given), the TGI is greater than 100 µM in the experiment on CAKI-1 renal; 91.8 µM in the experiment with HCT-116 colon; greater than 100 µM in the experiment with HCT-15 colon; greater than 100 µM in the experiment on HL-60(TB) leukemia; greater than 100 µM with NCI-H460 lung; greater than 100 µM in the experiment with OVCAR-5 ovarian. In addition, the TGI in the experiment with RPMI-8226 leukemia was greater than 100 µM; in the experiment with SF-295 CNS, greater than 100 µM; with SK-MEL-5 melanoma it was greater than 100 µM; in the experiment on SNB-19 CNS, 75.5 µM; with SR leukemia it was greater than 100 µM.
For `CC(=O)O[C@H]1CC[C@@]2(C)C(=CC[C@@H]3[C@@H]2CC[C@]2(C)Nc4c(cnn4S(C)(=O)=O)C[C@@H]32)C1`, the TGI in the experiment with CAKI-1 renal was greater than 100 µM; in the experiment with HCT-15 colon, greater than 100 µM; in the experiment on HL-60(TB) leukemia it was 71.3 µM; in the experiment with MCF7 breast, greater than 100 µM; with NCI-H460 lung it was greater than 100 µM; with OVCAR-5 ovarian, greater than 100 µM. In addition, the TGI in the experiment with RPMI-8226 leukemia was greater than 100 µM; in the experiment with SF-295 CNS, greater than 100 µM; with SK-MEL-5 melanoma, 30.6 µM; in the experiment on SNB-19 CNS, greater than 100 µM; with SR leukemia, greater than 100 µM.
Consider `O=C(O)NCc1ccccc1` (tested in a mixture with another compound), for which the TGI in the experiment on CAKI-1 renal is greater than 100 µM; with HCT-116 colon it was greater than 100 µM; in the experiment with HCT-15 colon, greater than 100 µM; in the experiment on HL-60(TB) leukemia it was 48.9 µM; with MCF7 breast it was greater than 100 µM; with NCI-H460 lung it was greater than 87.1 µM. The TGI in the experiment with OVCAR-5 ovarian is greater than 100 µM; in the experiment on RPMI-8226 leukemia it was 31.1 µM; in the experiment with SF-295 CNS it was greater than 100 µM; in the experiment on SK-MEL-5 melanoma it was 33.4 µM; in the experiment on SNB-19 CNS, greater than 100 µM; in the experiment on SR leukemia, 12.8 µM.
For `Cc1ccc(S(=O)(=O)N/N=c2\c(C)c(C3=NS(=O)(=O)c4cc(S(N)(=O)=O)c(Cl)cc4N3)oc3c(Cl)cc(Cl)cc23)cc1`, the TGI in the experiment with CAKI-1 renal, with HCT-116 colon, in the experiment on HCT-15 colon, with HL-60(TB) leukemia, in the experiment with NCI-H460 lung and in the experiment with OVCAR-5 ovarian was greater than 100 µM each time. The TGI in the experiment on RPMI-8226 leukemia, in the experiment with SF-295 CNS, in the experiment with SK-MEL-5 melanoma, in the experiment with SNB-19 CNS and in the experiment on SR leukemia was greater than 100 µM throughout.
Turning to `CCOC(=O)Nc1cc2c(c(N)n1)N=C(c1ccccc1)[C@H](C)N2`, the TGI in the experiment with HCT-116 colon was 0.0173 µM; with HCT-15 colon, 17.3 µM; in the experiment with HL-60(TB) leukemia, less than 0.0001 µM; with NCI-H460 lung it was 0.0464 µM; in the experiment on OVCAR-5 ovarian it was 53.9 µM; in the experiment on RPMI-8226 leukemia, 22.4 µM. Also, in the experiment with SNB-19 CNS, the TGI came out at 87.5 µM. Moreover, in the experiment on HCT-15 colon, the GI50 is less than 0.0001 µM.
Take `C/C(=N\Oc1cc(Cl)ncn1)c1ccccn1`: the TGI in the experiment with CAKI-1 renal was 57.5 µM; with HCT-116 colon, greater than 100 µM; in the experiment on MCF7 breast it was greater than 100 µM; in the experiment on NCI-H460 lung it was 67.9 µM; in the experiment with OVCAR-5 ovarian, greater than 100 µM; with RPMI-8226 leukemia, greater than 100 µM. In addition, the TGI in the experiment on SF-295 CNS, in the experiment with SK-MEL-5 melanoma, in the experiment on SNB-19 CNS and with SR leukemia was greater than 100 µM throughout.
Take `COc1cc(N/N=C/C#N)cc(OC)c1OC`: the TGI in the experiment on CAKI-1 renal is greater than 10 µM; in the experiment with HCT-116 colon it was greater than 10 µM; in the experiment with HCT-15 colon, greater than 10 µM; in the experiment with HL-60(TB) leukemia it was 5.64 µM; with MCF7 breast, greater than 10 µM; with NCI-H460 lung, greater than 10 µM. In addition, the TGI in the experiment with OVCAR-5 ovarian was greater than 10 µM; with RPMI-8226 leukemia it was 5.68 µM; in the experiment with SF-295 CNS it was greater than 10 µM; with SK-MEL-5 melanoma, greater than 10 µM; in the experiment on SNB-19 CNS it was greater than 10 µM; in the experiment on SR leukemia, greater than 10 µM.
